Test results published in patent US8877707B2, “Inhibitors of HCV NS5A” (Presidio Pharmaceuticals, Inc., priority 2010, dated 2014).

Each compound was assayed on HCV genotype 1b replicon in Huh 7 cells (assay: HCV replicon assay (1b_Huh-Luc/Neo-ET cell line, luciferase readout)). Conditions: Hepatitis C virus; Table 1; genotype 1b replicon, Huh 7 cells, 72 h, luciferase; read-out: Inhibition of HCV genotype 1b.
Format: cell-based
Description: Biological activity of the compounds of the invention was determined using an HCV replicon assay. The 1b_Huh-Luc/Neo-ET cell line persistently expressing a bicistronic genotype 1b replicon in Huh 7 cells was obtained from ReBLikon GMBH. This cell line was used to test compound inhibition using luciferase enzyme activity readout as a measurement of compound inhibition of replicon levels.
On Day 1 (the day after plating), each compound is added in triplicate to the cells. Plates incubated for 72 h prior to running the luciferase assay. Enzyme activity was measured using a Bright-Glo Kit (cat. number E2620) manufactured by Promega Corporation. The following equation was used to generate a percent control value for each compound. % Control=(Average Compound Value/Average Control)*100
The EC50 value was determined using GraphPad Prism and the following equation: Y=Bottom+(Top−Bottom)/(1+10^((Log IC50−X)*HillSlope))
EC50 values of compounds are repeated several times in the replicon assay.

Compound | EC50 [nM]
CNC(=O)N[C@@H](C(=O)N1CCC[C@H]1c1ncc(-c2ccc(-c3ccc4cc(-c5c[nH]c([C@@H]6CCCN6C(=O)[C@@H](NC(=O)OC)C(C)C)n5)ccc4n3)cc2)[nH]1)c1ccccc1 [compound 31] | < 1
COC(=O)N[C@H](C(=O)N1CCC[C@H]1c1nc(-c2cnc3cc(-c4ccc(-c5cnc([C@@H]6CCCN6C(=O)[C@H](NC(=O)OC)c6ccccc6)[nH]5)cc4)ccc3c2)c[nH]1)C(C)C [compound 32] | < 1
CCNC(=O)N[C@@H](C(=O)N1CCC[C@H]1c1ncc(-c2ccc(-c3ccc4cc(-c5c[nH]c([C@@H]6CCCN6C(=O)[C@@H](NC(=O)OC)C(C)C)n5)ccc4n3)cc2)[nH]1)c1ccccc1 [compound 33] | < 1
COC(=O)N[C@H](C(=O)N1CCC[C@H]1c1nc(-c2ccc3nc(-c4ccc(-c5cnc([C@@H]6CCCN6C(=O)[C@H](NC(=O)NC6CC6)c6ccccc6)[nH]5)cc4)ccc3c2)c[nH]1)C(C)C [compound 34] | < 1
COC(=O)N[C@H](C(=O)N1CCC[C@H]1c1ncc(-c2ccc(-c3ccc4cc(-c5c[nH]c([C@@H]6CCCN6C(=O)[C@H](NC(=O)OC(C)(C)C)c6ccccc6)n5)ccc4n3)cc2)[nH]1)C(C)C [compound 35] | < 1
CNC(=O)N[C@@H](C(=O)N1CCC[C@H]1c1nc(-c2ccc3nc(-c4ccc(-c5cnc([C@@H]6CCCN6C(=O)[C@@H](NC(=O)OC)C(C)C)[nH]5)cc4)ccc3c2)c[nH]1)c1ccccc1 [compound 36] | < 1
CCNC(=O)N[C@@H](C(=O)N1CCC[C@H]1c1nc(-c2ccc3nc(-c4ccc(-c5cnc([C@@H]6CCCN6C(=O)[C@@H](NC(=O)OC)C(C)C)[nH]5)cc4)ccc3c2)c[nH]1)c1ccccc1 [compound 37] | < 1
COC(=O)N[C@H](C(=O)N1CCC[C@H]1c1ncc(-c2ccc(-c3ccc4cc(-c5c[nH]c([C@@H]6CCCN6C(=O)[C@H](NC(=O)NC6CC6)c6ccccc6)n5)ccc4n3)cc2)[nH]1)C(C)C [compound 38] | < 1
COC(=O)N[C@H](C(=O)N1CCC[C@H]1c1ncc(-c2ccc(-c3ccc4cc(-c5c[nH]c([C@@H]6CCCN6C(=O)[C@@H](NC(=O)OC)C6CCOCC6)n5)ccc4n3)cc2)[nH]1)C(C)C [compound 39] | < 1
COC(=O)N[C@H](C(=O)N1CCC[C@H]1c1ncc(-c2ccc(-c3ccc4cc(-c5c[nH]c([C@@H]6CCCN6C(=O)[C@@H](NC(=O)OC)[C@@H](C)OC)n5)ccc4n3)cc2)[nH]1)C(C)C [compound 40] | < 1
COC(=O)N[C@@H](C)C(=O)N1CCC[C@H]1c1nc(-c2ccc3nc(-c4ccc(-c5cnc([C@@H]6CCCN6C(=O)[C@@H](NC(=O)OC)C(C)C)[nH]5)cc4)ccc3c2)c[nH]1 [compound 41] | < 1
COC(=O)N[C@H](C(=O)N1CCC[C@H]1c1nc(-c2ccc3nc(-c4ccc(-c5cnc([C@@H]6CCCN6C(=O)[C@@H](NC(=O)OC)C6CCOCC6)[nH]5)cc4)ccc3c2)c[nH]1)C(C)C [compound 42] | < 1
COC(=O)N[C@H](C(=O)N1CCC[C@H]1c1nc(-c2ccc3nc(-c4ccc(-c5cnc([C@@H]6CCCN6C(=O)[C@@H](NC(=O)OC)[C@@H](C)OC)[nH]5)cc4)ccc3c2)c[nH]1)C(C)C [compound 43] | < 1
COC(=O)N[C@@H](C)C(=O)N1CCC[C@H]1c1ncc(-c2ccc(-c3ccc4cc(-c5c[nH]c([C@@H]6CCCN6C(=O)[C@@H](NC(=O)OC)C(C)C)n5)ccc4n3)cc2)[nH]1 [compound 44] | < 1
COC(=O)N[C@H](C(=O)N1CCC[C@H]1c1ncc(-c2ccc(-c3ccc4cc(-c5c[nH]c([C@@H]6CCCN6C(=O)[C@H](NC(=O)OC)c6ccccc6)n5)cnc4c3)cc2)[nH]1)C(C)C [compound 45] | < 1
COC(=O)N[C@H](C(=O)N1CCC[C@H]1c1nc(-c2ccc3cc(-c4ccc(-c5cnc([C@@H]6CCCN6C(=O)[C@@H](NC(=O)OC)C6CCOCC6)[nH]5)cc4)ccc3c2)c[nH]1)C(C)C [compound 46] | < 1
COC(=O)N[C@H](C(=O)N1CCC[C@H]1c1ncc(-c2ccc(-c3ccc4cc(-c5c[nH]c([C@@H]6CCCN6C(=O)[C@@H](NC(=O)OC)C6CCOCC6)n5)ccc4c3)cc2)[nH]1)C(C)C [compound 47] | < 1
COC(=O)N[C@H](C(=O)N1CCC[C@H]1c1ncc(-c2ccc(-c3ccc4cc(-c5c[nH]c([C@@H]6CCCN6C(=O)[C@H](NC(=O)OC)c6ccccc6)n5)ccc4c3)nc2)[nH]1)C(C)C [compound 48] | < 1
COC(=O)N[C@H](C(=O)N1CCC[C@H]1c1nc(-c2cnc3cc(-c4ccc(-c5cnc([C@@H]6CCCN6C(=O)[C@@H](NC(=O)OC)C6CCOCC6)[nH]5)cc4)ccc3c2)c[nH]1)C(C)C [compound 49] | < 1
COC(=O)N[C@H](C(=O)N1CCC[C@H]1c1ncc(-c2ccc(-c3ccc4cc(-c5c[nH]c([C@@H]6CCCN6C(=O)[C@@H](NC(=O)OC)C6CCOCC6)n5)cnc4c3)cc2)[nH]1)C(C)C [compound 50] | < 1

Compound | EC50 [nM]
COC(=O)N[C@H](C(=O)N1CCC[C@H]1c1nc(-c2ccc3cc(-c4ccc(-c5cnc([C@@H]6CCCN6C(=O)[C@@H](NC(=O)OC)C6CCOCC6)[nH]5)cn4)ccc3c2)c[nH]1)C(C)C [compound 51] | < 1
COC(=O)N[C@H](C(=O)N1CCC[C@H]1c1ncc(-c2ccc(-c3ccc4cc(-c5c[nH]c([C@@H]6CCCN6C(=O)[C@@H](NC(=O)OC)C6CCOCC6)n5)ccc4c3)nc2)[nH]1)C(C)C [compound 52] | < 1
COC(=O)N[C@H](C(=O)N1CCC[C@H]1c1nc(-c2ccc3nc(-c4ccc(-c5cnc([C@@H]6CCCN6C(=O)[C@@H](NC(=O)OC)C(C)C)[nH]5)nc4)ccc3c2)c[nH]1)C(C)C [compound 53] | < 1
COC(=O)N[C@@H](C(=O)N1CCC[C@H]1c1nc(-c2ccc3nc(-c4ccc(-c5cnc([C@@H]6CCCN6C(=O)[C@H](NC(=O)OC)c6ccccc6)[nH]5)nc4)ccc3c2)c[nH]1)c1ccccc1 [compound 54] | < 1
COC(=O)N[C@H](C(=O)N1CCC[C@H]1c1nc(-c2ccc3cc(-c4ccc(-c5cnc([C@@H]6CCCN6C(=O)[C@H](NC(=O)OC)c6ccccc6)[nH]5)cn4)ccc3c2)c[nH]1)C(C)C [compound 56] | < 1
COC(=O)N[C@H](C(=O)N1CCC[C@H]1c1nc(-c2cnc3cc(-c4ccc(-c5cnc([C@@H]6CCCN6C(=O)[C@@H](NC(=O)OC)C(C)C)[nH]5)cc4F)ccc3c2)c[nH]1)C(C)C [compound 57] | < 1
COC(=O)N[C@H](C(=O)N1CCC[C@H]1c1ncc(-c2ccc(-c3ccc4cc(-c5c[nH]c([C@@H]6CCCN6C(=O)[C@H](NC(=O)OC)c6ccccc6)n5)cnc4c3)c(F)c2)[nH]1)C(C)C [compound 58] | < 1
COC(=O)N[C@H](C(=O)N1CCC[C@H]1c1ncc(-c2ccc(-c3ccc4cc(-c5c[nH]c([C@@H]6CCCN6C(=O)[C@@H](NC(=O)OC)C6CCOCC6)n5)cnc4c3)c(F)c2)[nH]1)C(C)C [compound 59] | < 1
COC(=O)N[C@H](C(=O)N1CCC[C@H]1c1ncc(-c2ccc(-c3ccc4cc(-c5c[nH]c([C@@H]6CCCN6C(=O)[C@H](NC(=O)OC)c6ccccc6)n5)cnc4c3)nc2)[nH]1)C(C)C [compound 60] | < 1
COC(=O)N[C@H](C(=O)N1CCC[C@H]1c1ncc(-c2ccc(-c3ccc4cc(-c5c[nH]c([C@@H]6CCCN6C(=O)[C@@H](NC(=O)OC)C6CCOCC6)n5)cnc4c3)nc2)[nH]1)C(C)C [compound 61] | < 1
COC(=O)N[C@H](C(=O)N1CCC[C@H]1c1nc(-c2cnc3cc(-c4ccc(-c5cnc([C@@H]6CCCN6C(=O)[C@@H](NC(=O)OC)C6CCOCC6)[nH]5)cn4)ccc3c2)c[nH]1)C(C)C [compound 62] | < 1
COC(=O)N[C@H](C(=O)N1CCC[C@H]1c1nc(-c2ccc3cc(-c4ccc(-c5cnc([C@@H]6CCCN6C(=O)[C@H](NC(=O)OC)c6ccccc6)[nH]5)nc4)ccc3c2)c[nH]1)C(C)C [compound 63] | < 1
COC(=O)N[C@H](C(=O)N1CCC[C@H]1c1nc(-c2ccc3cc(-c4ccc(-c5cnc([C@@H]6CCCN6C(=O)[C@H](NC(=O)OC)c6ccccc6)[nH]5)cc4F)ccc3c2)c[nH]1)C(C)C [compound 64] | < 1
COC(=O)N[C@H](C(=O)N1CCC[C@H]1c1nc(-c2ccc3cc(-c4ccc(-c5cnc([C@@H]6CCCN6C(=O)[C@@H](NC(=O)OC)C6CCOCC6)[nH]5)cc4F)ccc3c2)c[nH]1)C(C)C [compound 65] | < 1
COC(=O)N[C@H](C(=O)N1CCC[C@H]1c1nc(-c2ccc3cc(-c4ccc(-c5cnc([C@@H]6CCCN6C(=O)[C@@H](NC(=O)OC)C(C)C)[nH]5)cc4F)ccc3c2)c[nH]1)C(C)C [compound 66] | < 1
COC(=O)N[C@H](C(=O)N1CCC[C@H]1c1ncc(-c2ccc(-c3ccc4cc(-c5c[nH]c([C@@H]6CCCN6C(=O)[C@H](NC(=O)OC)c6ccccc6)n5)ccc4c3)c(F)c2)[nH]1)C(C)C [compound 67] | < 1
COC(=O)N[C@H](C(=O)N1CCC[C@H]1c1ncc(-c2ccc(-c3ccc4cc(-c5c[nH]c([C@@H]6CCCN6C(=O)[C@@H](NC(=O)OC)C6CCOCC6)n5)ccc4c3)c(F)c2)[nH]1)C(C)C [compound 68] | < 1
COC(=O)N[C@H](C(=O)N1CCC[C@H]1c1nc(-c2ccc3cc(-c4ccc(-c5cnc([C@@H]6CCCN6C(=O)[C@H](NC(=O)OC)c6ccccc6)[nH]5)cc4C)ccc3c2)c[nH]1)C(C)C [compound 69] | < 1
COC(=O)N[C@H](C(=O)N1CCC[C@H]1c1ncc(-c2ccc(-c3ccc4cc(-c5c[nH]c([C@@H]6CCCN6C(=O)[C@H](NC(=O)OC(C)(C)C)c6ccccc6)n5)ccc4n3)cn2)[nH]1)C(C)C [compound 70] | < 1
